Experiments:
Format in all cases: cell-based
human NHE3 [1] = target: T1, human NHE3 (Homo sapiens, UniProt P48764); assay: Measurements of NHE3 inhibitory activities (OK26 cells); conditions: OK26 cells (opossum kidney cells overexpressing human NHE3), measurement time 5 minutes at 37° C.; read-out: hNHE3 IC50
T1 construct: expressed in transfected cells; host or cells: OK26 cells (opossum kidney OK cells); OK26 ND sublines with opNHE1 reduced by 90% for A3
T1 sequence (P48764 26-834): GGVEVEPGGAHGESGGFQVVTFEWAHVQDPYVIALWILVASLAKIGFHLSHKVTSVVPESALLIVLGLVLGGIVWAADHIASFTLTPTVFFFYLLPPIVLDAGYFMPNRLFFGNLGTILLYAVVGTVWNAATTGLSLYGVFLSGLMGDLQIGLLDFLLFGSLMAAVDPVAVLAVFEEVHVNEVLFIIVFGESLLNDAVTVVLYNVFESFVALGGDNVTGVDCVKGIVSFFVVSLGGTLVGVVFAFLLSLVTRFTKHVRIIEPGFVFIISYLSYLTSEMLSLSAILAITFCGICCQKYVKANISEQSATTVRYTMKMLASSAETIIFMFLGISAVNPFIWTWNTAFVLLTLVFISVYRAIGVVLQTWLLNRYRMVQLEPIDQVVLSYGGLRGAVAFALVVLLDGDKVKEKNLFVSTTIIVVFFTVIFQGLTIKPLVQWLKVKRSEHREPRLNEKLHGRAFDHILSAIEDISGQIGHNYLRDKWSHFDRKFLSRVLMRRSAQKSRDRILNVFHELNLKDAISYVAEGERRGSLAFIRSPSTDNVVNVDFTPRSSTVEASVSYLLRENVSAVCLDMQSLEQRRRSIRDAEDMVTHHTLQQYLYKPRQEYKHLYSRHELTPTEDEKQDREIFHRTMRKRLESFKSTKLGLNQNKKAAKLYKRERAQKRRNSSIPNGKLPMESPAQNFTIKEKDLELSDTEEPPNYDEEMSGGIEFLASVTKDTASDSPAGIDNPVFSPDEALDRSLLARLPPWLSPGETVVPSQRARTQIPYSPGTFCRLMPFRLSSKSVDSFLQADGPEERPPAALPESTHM
Method: (§1) HLF cells (Human hepatoma cell line) were used as cells for the test. After 1×10^4 cells/well were seeded to a 96-well plate and cultured for 3 days, they were cultured overnight under a serum-free medium. Then, the cells were incubated in a stain solution of Tetramethylammonium (TMA) Buffer (130 mM TMA-C1, 5 mM KCl, 2 mM CaCl2, 1 mM MgSO2, 25 mM glucose, 20 mM HEPES; pH 7.4) containing 40 mM NH4Cl and 1 μg/mL pH-sensitive fluorescent indicator BCECF-AM at 37° C. for 40 minutes and then BCECF was introduced into the cells. After the cells were washed once with TMA Buffer and incubated in TMA+40 mM NH4Cl solution at 37° C. for 15 minutes, the solution was removed and 20 μL/well of TMA Buffer and 10 μL/well of each test compound solution prepared with TMA Buffer were added to each well. The measurements were carried out by adding 200 μL/well of Na Buffer (130 mM, NaCl, 5 mM KCl, 2 mM CaCl2, 1 mM MgSO2, 1 mM NaH2PO4, 25 mM glucose, 20 mM HEPES; pH 7.4) or TMA Buffer (for base measurement), immediately placing it on FlexStation (Molecular Device) and then, after 10 minutes, measuring, it the two wavelengths of 505 nm (excitation wavelength)/530 nm (emission wavelength) (measurement value) and 440 nm (excitation wavelength)/530 nm (emission wavelength) (isosbestic point value). A NHE activity was calculated by dividing a measurement value by an isosbestic point value and a NHE1 inhibitory activity was calculated by the following equation. NHE1 inhibitory activity (%)=100×(1−(Measurement value [addition of each compound]−Base [addition of TMA Buffer])/(Control [addition of Na Buffer]−Base [addition of TMA Buffer]))
Pharmacological Test Example 2: Measurements of NHE3 Inhibitory Activities.
OK26 cells (OK (opossum kidney) cells in which human NHE3 genes are overexpressed) were used as cells for the test. The measurements were carried out in the same manner as described in Pharmacological Test Example 1 except that the measurement time was 5 minutes (at 37° C.) to calculate NHE3 inhibitory activities.

human NHE3 [2] = target: T1, human NHE3; assay: Improved version of measurements of NHE3 inhibitory activities (OK26 ND cell lines); conditions: OK26 ND cell lines (opNHE1 expression reduced by 90%), measurement time 8 minutes at 26° C.; read-out: hNHE3 IC50
Method: Pharmacological Test Example 3: Improved Version of Measurements of NHE3 Inhibitory Activities
OK26 cells express endogeneous NHE1 (opNHE1). In order to evaluate NHE3 inhibitory activities more precisely, OK26 ND cell lines in which the expression level of opNHE1 is reduced by 90% were established. Measurements of NEE inhibitory activities were carried out by using the established cell lines in the same manner as described in Pharmacological Test Example 1 except that the measurement time was 8 minutes (at 26° C.) to calculate more precise NHE3 inhibitory activities.

NHE1 = target: T2, NHE1 (Homo sapiens, UniProt P19634); assay: Measurements of NHE1 inhibitory activities (HLF cells, BCECF pH recovery); conditions: HLF cells (human hepatoma cell line), measured after 10 minutes; read-out: hNHE1 IC50
T2 construct: HLF cells (Human hepatoma cell line) were used as cells for the test; endogenous in cells; host or cells: HLF cells (human hepatoma cell line)
T2 sequence (P19634 whole entry): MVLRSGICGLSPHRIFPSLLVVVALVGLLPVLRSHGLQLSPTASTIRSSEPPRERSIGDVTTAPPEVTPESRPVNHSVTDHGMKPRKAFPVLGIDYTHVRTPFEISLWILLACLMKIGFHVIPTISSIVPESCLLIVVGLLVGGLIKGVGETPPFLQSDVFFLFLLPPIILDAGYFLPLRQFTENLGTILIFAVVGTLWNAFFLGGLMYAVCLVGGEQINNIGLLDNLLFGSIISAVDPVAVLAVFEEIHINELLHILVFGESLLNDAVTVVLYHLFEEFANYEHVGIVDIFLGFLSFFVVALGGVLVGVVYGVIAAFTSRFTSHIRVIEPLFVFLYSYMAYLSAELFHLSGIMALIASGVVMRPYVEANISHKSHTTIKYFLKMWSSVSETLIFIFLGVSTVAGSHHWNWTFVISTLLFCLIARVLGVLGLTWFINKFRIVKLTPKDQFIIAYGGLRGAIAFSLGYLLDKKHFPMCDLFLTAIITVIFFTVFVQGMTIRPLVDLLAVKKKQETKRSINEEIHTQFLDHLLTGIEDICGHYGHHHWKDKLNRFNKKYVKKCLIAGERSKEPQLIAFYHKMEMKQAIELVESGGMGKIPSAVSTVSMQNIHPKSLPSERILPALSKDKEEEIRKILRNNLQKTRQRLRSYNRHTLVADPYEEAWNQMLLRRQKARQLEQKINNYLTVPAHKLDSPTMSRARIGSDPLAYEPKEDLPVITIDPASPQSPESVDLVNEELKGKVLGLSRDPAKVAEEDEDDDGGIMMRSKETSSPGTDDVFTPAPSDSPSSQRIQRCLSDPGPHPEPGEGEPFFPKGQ
Method: Pharmacological Test Example 1: Measurements of NHE1 Inhibitory Activities
as §1

| IC50 (human NHE3 [1]) | IC50 (human NHE3 [2]) | IC50 (NHE1) | SMILES |
| --- | --- | --- | --- |
| 210 nM | 110 nM | – | C/C(=C\c1ccccc1-c1cccc(O)c1)C(=O)NC(=N)N [Example 13, N-[(E)-3-(3′-hydroxy-biphenyl-2-yl)-2-methyl-acryloyl]guanidine] |
| 230 nM | – | – | C/C(=C\c1ccc(-c2ccc(O)cc2C)cc1)C(=O)NC(=N)N [Example 86, N-[(E)-3-(4′-hydroxy-2′-methyl-biphenyl-4-yl)-2-methyl-acryloyl]-guanidine] |
| 480 nM | – | – | C/C(=C\c1ccc(-c2ccccc2O)cc1)C(=O)NC(=N)N [Example 88, N-[3-(2′-hydroxy-biphenyl-4-yl)-2-methyl-acryloyl]-guanidine] |
| 190 nM | 60 nM | 1600 nM | C/C(=C\c1ccc(C)cc1-c1ccc(O)cc1)C(=O)NC(=N)N [Example 47, N-[(E)-3-(4′-hydroxy-5-methyl-biphenyl-2-yl)-2-methyl-acryloyl]-guanidine] |
| 230 nM | 230 nM | 3100 nM | C/C(=C\c1ccccc1-c1cc(C)c(O)c(C)c1)C(=O)NC(=N)N [Example 22, N-[(E)-3-(3′,5′-dimethyl-4′-hydroxy-biphenyl-2-yl)-2-methyl-acryloyl]-guanidine] |
| 180 nM | 38 nM | 1600 nM | C/C(=C\c1ccc(C)cc1-c1cccc(O)c1)C(=O)NC(=N)N [Example 37, N-[(E)-3-(3′-hydroxy-5-methyl-biphenyl-2-yl)-2-methyl-acryloyl]-guanidine] |
| 270 nM | – | – | C/C(=C\c1ccc(-c2cccc(O)c2)cc1)C(=O)NC(=N)N [Example 87, N-[(E)-3-(3′-hydroxy-biphenyl-4-yl)-2-methyl-acryloyl]-guanidine] |
| 230 nM | 100 nM | 1200 nM | C/C(=C\c1ccccc1-c1ccc(B(O)O)cc1)C(=O)NC(=N)N [Example 11, N-[(E)-3-(4′-boronic acid-biphenyl-2-yl)-2-methyl-acryloyl]guanidine] |
| – | 61 nM | 940 nM | C/C(=C\c1ccc(-c2cccc(O)c2)cc1-c1cccc(O)c1)C(=O)NC(=N)N [Example 77, N-[(E)-3-(2,4-di(3-hydroxyphenyl)-phenyl)-2-methyl-acryloyl]-guanidine] |
| 470 nM | 210 nM | 1200 nM | C/C(=C\c1ccccc1-c1ccc(O)c(F)c1)C(=O)NC(=N)N [Example 24, N-[(E)-3-(3′-fluoro-4′-hydroxy-biphenyl-2-yl)-2-methyl-acryloyl]-guanidine] |
| 860 nM | – | – | C/C(=C\c1ccc(-c2ccc(F)c(O)c2)cc1)C(=O)NC(=N)N [Example 89, N-[(E)-3-(4′-fluoro-3′-hydroxy-biphenyl-4-yl)-2-methyl-acryloyl]-guanidine] |
| – | 180 nM | 2100 nM | C/C(=C\c1ccccc1-c1cc[nH]c1)C(=O)NC(=N)N [Example 84, N-{(E)-2-methyl-3-[2-(1H-pyrrole-3-yl)-phenyl]-acryloyl}-guanidine] |
| 110 nM | 83 nM | – | C/C(=C\c1ccccc1-c1ccc(O)cc1)C(=O)NC(=N)N [Example 2, N-[(E)-3-(4′-hydroxy-biphenyl-2-yl)-2-methyl-acryloyl]-guanidine] |
| – | 92 nM | 1300 nM | C/C(=C\c1ccc(C)cc1-c1ccc(O)c(F)c1)C(=O)NC(=N)N [Example 62, N-[(E)-3-(3′-fluoro-4′-hydroxy-5-methylbiphenyl-2-yl)-2-methyl-acryloyl]-guanidine] |
| – | 610 nM | 2600 nM | COc1cc(-c2ccccc2/C=C(\C)C(=O)NC(=N)N)ccc1O [Example 23, N-[(E)-3-(4′-hydroxy-3′-methoxy-biphenyl-2-yl)-2-methyl-acryloyl]guanidine] |
| – | 320 nM | 2100 nM | C/C(=C\c1ccc(-c2ccc(O)cc2)cc1N1CCOCC1)C(=O)NC(=N)N [Example 94, N-[(E)-3-(4′-hydroxy-3-morpholine-4-yl-biphenyl-4-yl)-2-methyl-acryloyl]-guanidine] |
| – | 150 nM | 3300 nM | COc1cc(-c2ccc(/C=C(\C)C(=O)NC(=N)N)c(-c3ccc(O)c(OC)c3)c2)ccc1O [Example 78, N-[(E)-3-(2,4-di(3-methoxy-4-hydroxyphenyl)-phenyl)-2-methyl-acryloyl]-guanidine] |
| 1600 nM | – | – | C/C(=C\c1ccccc1-c1ccc(C(=O)O)cc1)C(=O)NC(=N)N [Example 10, (E)-2′-(3-guanidino-2-methyl-3-oxo-propenyl)-biphenyl-4-carboxylic acid] |
| – | 400 nM | 3400 nM | C/C(=C\c1ccccc1-c1ccc(C(=N)N)cc1)C(=O)NC(=N)N [Example 56, (E)-2′-(3-guanidino-2-methyl-3-oxo-propenyl)-biphenyl-4-carboxamidine] |
| – | 87 nM | 1100 nM | C/C(=C\c1ccc(-c2ccc(O)cc2)cc1-c1ccc(O)cc1)C(=O)NC(=N)N [Example 72, N-[(E)-3-(2,4-di(4-hydroxyphenyl)-phenyl)-2-methyl-acryloyl]-guanidine] |
| 320 nM | 230 nM | – | C/C(=C\c1cc(O)c(O)cc1-c1cccc(O)c1)C(=O)NC(=N)N [Example 36, N-[(E)-2-methyl-3-(4,5,3′-trihydroxy-biphenyl-2-yl)-acryloyl]-guanidine] |
| – | 400 nM | 1100 nM | C/C(=C\c1ccc(-c2ccc(F)c(O)c2)cc1-c1ccc(F)c(O)c1)C(=O)NC(=N)N [Example 76, N-[(E)-3-(2,4-di(3-hydroxy-4-fluorophenyl)-phenyl)-2-methyl-acryloyl]-guanidine] |
| – | 9 nM | 200 nM | C/C(=C\c1ccccc1-c1ccc(C(=N)N)c(F)c1)C(=O)NC(=N)N [Example 58, (E)-3-fluoro-2′-(3-guanidino-2-methyl-3-oxo-propenyl)-biphenyl-4-carboxamidine] |
| – | 100 nM | 1100 nM | C/C(=C\c1ccccc1-c1ccc(C(=N)N)cc1C)C(=O)NC(=N)N [Example 57, (E)-2′-(3-guanidino-2-methyl-3-oxo-propenyl)-2-methyl-biphenyl-4-carboxamidine] |
| – | 200 nM | 1400 nM | COc1ccc(-c2cc(C)ccc2/C=C(\C)C(=O)NC(=N)N)cc1O [Example 74, N-[(E)-3-(3′-hydroxy-4′-methoxy-5-methyl-biphenyl-2-yl)-2-methyl-acryloyl]-guanidine] |
| – | 120 nM | 2100 nM | C/C(=C\c1cccc(C)c1-c1ccc(O)cc1)C(=O)NC(=N)N [Example 67, N-[(E)-3-(4′-hydroxy-6-methyl-biphenyl-2-yl)-2-methyl-acryloyl]-guanidine] |
